The record followed here is PubChem BioAssay (NCI).

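How tested: cells in 96-well plates exposed to compound for 48 hours at five concentrations. At the TGI there is no net growth.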

Among the test systems are A498 renal; NCI-H23 lung; 786-0 renal; HOP-62 NSCLC; SK-MEL-28 melanoma; M14 melanoma; COLO 205 colon; A549 NSCLC; NCI-H460 lung; HL-60(TB) leukemia; SNB-75 CNS; HS 578T breast; U251 CNS; OVCAR-8 ovarian; NCI/ADR-RES ovarian.
What all share (assay): growth of human tumour cells (NCI), 48 h

As for `CC1=CC(=O)c2cccc(O)c2C1=O`, the TGI with A498 renal stood at 33.5 µM; with NCI-H23 lung it was 7.32 µM; in the assay on 786-0 renal, 3.09 µM; with HOP-62 NSCLC, 30.9 µM; in the assay on SK-MEL-28 melanoma, 7.81 µM; with M14 melanoma, 3.25 µM. The TGI with COLO 205 colon came out at 4.36 µM; in the assay with A549 NSCLC, 34.7 µM; in the assay on NCI-H460 lung it was 18.9 µM; with HL-60(TB) leukemia, 9.13 µM; in the assay on SNB-75 CNS it was 18 µM; with HS 578T breast, 7.13 µM. Besides, the values for the TGI in the assay on U251 CNS and in the assay with OVCAR-8 ovarian were 30.2 µM and 15.4 µM, respectively.

Regarding `O=c1[nH]ncc2[nH]c3c(c12)CCCc1ccccc1-3`, the TGI in the assay with A498 renal is 66.3 µM; in the assay with NCI-H23 lung, over 100 µM; in the assay on NCI/ADR-RES ovarian, over 100 µM; in the assay with 786-0 renal, over 100 µM; with HOP-62 NSCLC, over 100 µM; in the assay with M14 melanoma it was over 100 µM. For the same compound, the TGI was 53.2 µM in the assay on COLO 205 colon; over 100 µM with A549 NSCLC; over 100 µM in the assay with NCI-H460 lung; over 100 µM with HL-60(TB) leukemia; 45.8 µM in the assay with HS 578T breast; over 100 µM with U251 CNS. The same compound showed a TGI in the assay with OVCAR-8 ovarian of over 100 µM.

For `CCN(CC)CC1CCCCN1CC(=O)N1c2ccc(Br)cc2C(=O)Nc2cccnc21` (centres undefined), the TGI in the assay on A498 renal, in the assay with NCI-H23 lung, in the assay on 786-0 renal, with HOP-62 NSCLC, in the assay with SK-MEL-28 melanoma and in the assay on M14 melanoma was over 100 µM each time. The TGI is over 100 µM with COLO 205 colon; over 100 µM in the assay with A549 NSCLC; over 100 µM with NCI-H460 lung; over 100 µM in the assay on HL-60(TB) leukemia; 59.4 µM with SNB-75 CNS; over 100 µM in the assay with HS 578T breast. Also, the TGI in the assay on U251 CNS and in the assay with OVCAR-8 ovarian was over 100 µM in each case.

`CC1(C)C2CCC1(C)C(NC(=O)CCN1CCOCC1)C2` (centres undefined): the TGI in the assay with A498 renal, in the assay with NCI-H23 lung, in the assay on 786-0 renal, in the assay on HOP-62 NSCLC, with SK-MEL-28 melanoma and with M14 melanoma was over 100 µM each time. The TGI with COLO 205 colon, with A549 NSCLC, in the assay on NCI-H460 lung, with HL-60(TB) leukemia, in the assay on SNB-75 CNS and in the assay with HS 578T breast was over 100 µM each time. For the same compound, the TGI in the assay on U251 CNS and with OVCAR-8 ovarian was over 100 µM in each case.

For the compound `Cc1nnc2sc(-c3ccc(N)cc3)nn12`, the TGI in the assay on NCI-H23 lung, in the assay with NCI/ADR-RES ovarian, in the assay on 786-0 renal, with HOP-62 NSCLC, in the assay with SK-MEL-28 melanoma and in the assay with M14 melanoma was over 100 µM each time. The TGI in the assay with COLO 205 colon was over 100 µM; in the assay with A549 NSCLC, over 100 µM; with NCI-H460 lung it was over 100 µM; in the assay on HL-60(TB) leukemia, over 100 µM; with SNB-75 CNS, 95.7 µM; with HS 578T breast it was over 100 µM. This compound showed a TGI in the assay with OVCAR-8 ovarian of over 100 µM.

Take `N[C@H]1CCc2c1nc1c(c2-c2ccccc2)CC[C@@H]1N`: the TGI was 61.6 µM in the assay with NCI-H23 lung; over 100 µM in the assay with NCI/ADR-RES ovarian; 28.6 µM in the assay with 786-0 renal; over 100 µM in the assay on HOP-62 NSCLC; 31.1 µM in the assay with M14 melanoma; 44.2 µM in the assay with COLO 205 colon. Further, the TGI in the assay on A549 NSCLC was over 100 µM; in the assay on NCI-H460 lung, over 100 µM; in the assay on HL-60(TB) leukemia it was 46.4 µM; in the assay on SNB-75 CNS, 29.5 µM; in the assay on U251 CNS, 55.3 µM; in the assay on OVCAR-8 ovarian, over 100 µM.

For the compound `O=c1cc2oc3ccc4ccccc4c3cc-2c(=O)[nH]1`, the TGI was determined as 31.8 µM in the assay on A498 renal; 4.78 µM in the assay with NCI-H23 lung; 37.1 µM with NCI/ADR-RES ovarian; 26.7 µM in the assay with 786-0 renal; 25.2 µM with HOP-62 NSCLC; 32.7 µM with SK-MEL-28 melanoma. The TGI amounted to 32.2 µM in the assay with M14 melanoma; 30 µM in the assay with COLO 205 colon; 42.8 µM in the assay with A549 NSCLC; 53.1 µM in the assay with NCI-H460 lung; 4.18 µM with HL-60(TB) leukemia; 58.4 µM with HS 578T breast. The TGI was found to be 22 µM in the assay on U251 CNS and 4.53 µM with OVCAR-8 ovarian.

For `C1CSCCSS[C@@H]2CCCCC2SC1` (some centres undefined), the TGI with NCI-H23 lung, with NCI/ADR-RES ovarian, in the assay on 786-0 renal, in the assay on HOP-62 NSCLC, in the assay on SK-MEL-28 melanoma and with M14 melanoma was over 100 µM in each case. Moreover, the TGI in the assay with COLO 205 colon, with A549 NSCLC, with NCI-H460 lung, in the assay on HL-60(TB) leukemia, with SNB-75 CNS and with U251 CNS was over 100 µM each time. Moreover, the TGI with OVCAR-8 ovarian is over 100 µM.

As to `O=C(CN1CCOCC1)NC1=Nc2ncccc2C(=O)NN1`, the TGI with A498 renal, in the assay on NCI-H23 lung, in the assay on 786-0 renal, in the assay with HOP-62 NSCLC, with SK-MEL-28 melanoma and in the assay with M14 melanoma was over 10 µM in each case. Also, the TGI with A549 NSCLC, with NCI-H460 lung, in the assay with HL-60(TB) leukemia, with SNB-75 CNS, with HS 578T breast and with U251 CNS was over 10 µM in each case. This compound showed a TGI in the assay with OVCAR-8 ovarian of over 10 µM.

With `CCCCNC(=O)C1=C(C)NC(C)=C(C(=O)NCCCC)C1`, the TGI with A498 renal, with NCI-H23 lung, in the assay with NCI/ADR-RES ovarian, in the assay on 786-0 renal, with HOP-62 NSCLC and in the assay on SK-MEL-28 melanoma was over 100 µM in each case. In addition, the TGI with M14 melanoma, in the assay on COLO 205 colon, in the assay on A549 NSCLC, with NCI-H460 lung, in the assay on HL-60(TB) leukemia and in the assay on SNB-75 CNS was over 100 µM throughout. The TGI with U251 CNS and in the assay on OVCAR-8 ovarian was over 100 µM in each case.
